Source: patent US20090220421A1, “METHOD FOR SCREENING MTP-INHIBITING COMPOUNDS” (priority 2005, published 2009)

What was measured:
[1] = Test D: metabolisation/inactivation of the product in rodent liver microsomes; assay type: in vitro ADME; settings: 0.5 mg/ml microsomes, 10 μM test product, 1 hour at 37° C., disappearance of parent by LC/MS/MS
Procedure: Metabolisation/Inactivation of the Product
The products are evaluated for their capacity to be inactivated rapidly in vitro. […] The incubation medium is prepared by mixing together the following constituents: NAD (1 mM), glucose 6 phosphate (5 mM), NADP (1 mM), glucose 6 phosphate dehydrogenase (1 IU/ml), bovine serum albumin (1 mg/ml), TRIS (10 mM pH=7.6), MgCl2 (5 mM).
A concentration of 0.5 mg/ml of microsomes (Biopredic) is placed in contact with 10 μM of test product. The mixture is incubated for 1 hour at 37° C. A fraction of the preparation is taken at the initial time, to which is added an equivalent volume of ethanol (quenching of the reaction by precipitation of the proteins). The same operation is repeated after 1 hour of incubation.
The samples obtained are centrifuged at 4000 rpm for 10 minutes, and the supernatant is analysed by LC/MS/MS. The percentage of disappearance of the parent product between T0 and T60 minutes is determined by calculating the areas of the chromatographic peaks.
(§1) Potential metabolites M1 and M2 (of the compounds 1 or 2, respectively) are identified, resynthesised and evaluated for their MTP-inhibiting activity.

[2] = tested on: apoB secretion in HepG2 cells; assay: Test C: inhibition of apoB secretion in the HepG2 human cell line (sandwich ELISA); assay type: cell-based; settings: 24 hours incubation, read-out: IC50 (concentration that produces a 50% inhibition of apoB secretion in the HepG2 cells)
Procedure: Qualitative Analysis of the Secretion of apoB in the HepG2 Human Cell Line
The activity of a compound may be evaluated by measuring the inhibition of apoB secretion in HepG2 cells.
The HepG2 cells (ECACC-No. 85011430) are used as model in the study of the in vitro hepatic secretion of lipoproteins, as described by Dixon J. and Ginsberg H. (J. Lipid. Res., (1993), 34, 167-179).
The HepG2 cells are cultured in Dulbecco's modified Eagle's medium comprising 10% foetal calf serum (DMEM and FBS-Gibco) in 96-well plates under an atmosphere of 5% carbon dioxide for 24 hours (about 70% confluence).
The test compounds are dissolved at a concentration of 2 or 10 mM in dimethyl sulfoxide (DMSO). Serial dilutions (1:3.16) are made in DMSO and are added (1:200—Robot Multimek Beckman) to the growth medium (200 μl) and then finally incubated for 24 hours in the various wells containing the HepG2 cells.
The 24-hour culture supernatant diluted to 1:5 (phosphate-buffered saline: PBS comprising 1% bovine serum albumin) is tested according to a sandwich-ELISA method specific for human apoB.
The results, presented in Table II below for compounds 1 and 2, are expressed in terms of IC50, i.e. the concentration that produces a 50% inhibition of apoB secretion in the HepG2 cells.

[3] = biological target: T1, microsomal triglyceride transfer protein (MTP) (Mesocricetus auratus, UniProt P55158); assay: Test B: qualitative analysis of the inhibition of MTP activity in vitro (labelled triglyceride transfer, SPA); assay type: biochemical, golden hamster; settings: [3H]-triolein transfer from liposomes to LDL-biot, 18-24 hours at 37° C.; read-out: IC50 (concentration that allows a 50% inhibition of MTP)
T1 construct: The supernatant comprising the soluble MTP is dialysed; from tissue; host or cells: golden hamster liver microsomes, deoxycholate-solubilised supernatant
T1 sequence (P55158 19-895): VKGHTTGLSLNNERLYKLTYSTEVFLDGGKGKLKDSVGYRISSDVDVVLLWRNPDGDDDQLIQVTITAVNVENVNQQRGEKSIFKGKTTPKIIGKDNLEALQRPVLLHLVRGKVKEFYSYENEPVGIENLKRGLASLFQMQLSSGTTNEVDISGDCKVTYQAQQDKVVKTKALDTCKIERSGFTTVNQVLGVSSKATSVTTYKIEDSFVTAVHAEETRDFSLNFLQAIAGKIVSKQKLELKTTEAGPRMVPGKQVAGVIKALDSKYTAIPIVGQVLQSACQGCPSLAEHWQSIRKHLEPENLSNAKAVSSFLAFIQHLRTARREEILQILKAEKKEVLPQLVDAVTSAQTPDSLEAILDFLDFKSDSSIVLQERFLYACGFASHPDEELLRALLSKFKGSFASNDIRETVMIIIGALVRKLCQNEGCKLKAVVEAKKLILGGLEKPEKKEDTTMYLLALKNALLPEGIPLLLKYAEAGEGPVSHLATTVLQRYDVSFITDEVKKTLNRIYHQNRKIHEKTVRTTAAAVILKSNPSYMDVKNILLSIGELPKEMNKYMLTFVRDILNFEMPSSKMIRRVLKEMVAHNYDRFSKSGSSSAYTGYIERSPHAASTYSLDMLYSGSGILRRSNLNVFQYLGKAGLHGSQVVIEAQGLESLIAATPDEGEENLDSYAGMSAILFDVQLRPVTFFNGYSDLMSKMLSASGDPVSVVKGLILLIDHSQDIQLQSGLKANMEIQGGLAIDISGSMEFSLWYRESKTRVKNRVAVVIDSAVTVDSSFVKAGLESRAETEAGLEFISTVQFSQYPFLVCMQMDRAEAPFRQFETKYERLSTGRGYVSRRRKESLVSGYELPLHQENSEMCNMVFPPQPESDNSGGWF
Procedure: Qualitative Analysis of the Inhibition of Mtp Activity In Vitro
The inhibition of the activity of microsomal triglyceride transfer protein (MTP) was tested by using the following operating protocol.
The inhibition of MTP activity with a compound may be quantified by observing the inhibition of the transfer of a labelled triglyceride, from a donor particle to an acceptor particle, in the presence of MTP. The procedure for the preparation of MTP is based on the method by Wetterau and Zilversmit (Biochem. Biophys. Acta (1986) 875, 610). A few grams of golden hamster liver are taken and then rinsed several times in a 250 mM sucrose solution at 0° C. All the following steps proceed at +4° C. […]
The reaction mixture is prepared in untreated ½ well white plates (Corning Costar) by addition, in the following order, of: 5 μl of HEPES 50 mM, NaCl 150 mM, BSA 0.1% (w/v), 0.05% sodium azide (w/v), pH 7.4 buffer; 5 μl of liposomes; 5 μl of LDL-biot; 5 μl of test products in DMSO 5 μl of MTP. After incubation for 18-24 hours at 37° C., the reaction is stopped by adding 100 μl of Amersham SPA (Scintillation Proximity Assay) beads coupled to streptavidin, and the radioactivity is counted using a Top Count (Packard) machine at least one hour later. The inhibition of the transfer of the triglycerides with a compound is reflected by a reduction in the transferred radioactivity. […]

secretion of VLDL = assay: Test Avivo: duration of action of MTP inhibitors on the secretion of VLDL; assay type: in vivo, fatty fa/fa Zucker rats; settings: between 6 and 8 hours after treatment
Procedure: Determination of the Duration of Action of MTP Inhibitors on the Secretion of VLDL
This test makes it possible to evaluate the kinetics of inhibition of MTP-inhibiting compounds on the secretion of VLDL in fatty fa/fa Zucker rats (10-12 weeks old), which is an animal model characterised by hypersecretion of VLDL. The intensity and duration of inhibition are measured via the triton technique described above over a period ranging up to 8 hours after administration of the products. Since the duration of action of a product depends both of the administered dose and on its intrinsic characteristics, it is determined at a dose of makes it possible to reach a maximum inhibition (Imax) of at least 50% over a significant time interval. The comparison of the profile of duration of action of two compounds that may have different potentials is thus performed at respective doses that allow similar Imax values to be obtained.

[4] = tested on: secretion of VLDL (hepatic MTP); assay: Test F: inhibition of secretion of VLDL in rats (triton technique); assay type: in vivo, Male Wistar rats; settings: 100 mg/kg orally, between 1 hour and 6 hours after treatment, relative to controls
Procedure: Inhibition of Secretion of VLDL in Rats:
The inhibition of hepatic MTP by compounds 1 and 2 was evaluated from their impact on the secretion of very low density lipoproteins (VLDLs). Male Wistar rats (220-280 g) receive a standard diet and water ad libitum. On the day of the experiment, the animals (n=7) are fasted and, one hour later, are treated with the compounds (100 mg/kg orally; excipient 0.5% methylcellulose). The secretion of VLDL is measured one hour after treatment, and for 5 hours, via the triton technique (WR 1339). When it is injected into the bloodstream, triton (400 mg/kg) prevents the catabolism of the VLDLs by inhibiting their lipolysis via lipoprotein lipase and by inhibiting their uptake by tissues. Measurement of the accumulation of triglycerides (TG) and of cholesterol, which is a component of VLDLs, thus makes is it possible to reveal the secretion of VLDL by the liver.
The effect of the product on the secretion of VLDL is thus evaluated between 1 hour and 6 hours after treatment at a dose of 100 mg/kg, i.e. between 0 and 5 hours after the intravenous injection of triton. Blood samples are taken at regular intervals under gaseous anaesthesia, to assay of the triglycerides and the cholesterol. […] The levels of inhibition relative to controls not treated with the compounds are determined, and the results are collated in Table V.

MTP = biological target: T2, MTP (Mesocricetus auratus, UniProt P55158); assay: Test D: MTP-inhibiting activity of the resynthesised metabolites; assay type: biochemical; settings: MTP-inhibiting activity of metabolites M1, M2 of the compound
T2 sequence (P55158 19-895): T1 sequence (P55158 19-895)
Source text: Thus, Test A may also be preceded or followed, preferably followed, by one or more tests of inhibition of MTP and/or of inhibition of the secretion of VLDLs and/or of inhibition of the secretion of apoB, which are similar or even identical to the Tests B and/or C, respectively, defined above, but performed this time on the plasmatic metabolites of the candidate compounds. These tests on the metabolites will be referred to hereinbelow as Test D (metabolites/MTP inhibition test) and Test E (metabolites/apoB inhibition test).
as §1

[5] = tested on: secretion of apoB by HepG2 cells; assay: Test Avitro: kinetics (reversibility) of inhibition of secretion of apoB by HepG2 cells; assay type: cell-based, human
Procedure: Analyse of the Kinetics (Reversibility) of Inhibition of Secretion of apoB by HepG2 Cells:
HepG2 cells are placed in contact with the products as described in the preceding paragraph and the secretion of ApoB is measured after 6 and 24 hours. The comparison is made at equipotent dose for the inhibition of secretion of apoB after 24 hours.
Next, the products are removed from the culture medium (during changes of the medium at 0, 6, 24 and 48 hours) and the secretion of ApoB is again measured to determine the kinetics for return to normal secretion. The reversibility is judged satisfactory if the secretion, 24 hours after removal of the products, has a value greater than or equal to 70% of that of the controls (blank cells without compound).

- Metabolisation (%/hour) [1]: 88 %/hour
- IC50 [2]: 18 nM
- IC50 [3]: 320 nM
- Activity of the metabolites (MTP): M1, M2 inactive
SMILES: O=C(NC1CCN(Cc2cccnc2)CC1)c1ccccc1-c1ccc(C(F)(F)F)cc1 [Compound 1]
- residual inhibition of VLDL secretion (secretion of VLDL): absence of significant residual inhibition
- Inhibition of secretion of VLDL-TG [4]: −56%
- Inhibition of secretion of VLDL-cholesterol [4]: −45%
- Secretion of apoB 24 hours after removal of the products (% of the controls) [5]: >85%
